Key:
Experiment in all cases: KINOMEscan competition binding
Conditions in all cases: compound 10.0 µM
[1] = target: CAMK2D (human) (UniProt Q13557)
[2] = target: CDC2L2 (human) (UniProt Q9UQ88)
[3] = target: CDK15 (human) (UniProt Q96Q40)
[4] = target: CDK19 (human) (UniProt Q9BWU1)
[5] = target: CSK (human) (UniProt P41240)
[6] = target: CSNK2A1 (human) (UniProt P68400)
[7] = target: DAPK1 (human) (UniProt P53355)
[8] = tested on: EGFR (human), P00533 [747-751 del / S ins]
[9] = tested on: EGFR (human), P00533 [T790M]
[10] = target: EPHA3 (human) (UniProt P29320)
[11] = target: ERBB2 (human) (UniProt P04626)
[12] = target: FLT1 (human) (UniProt P17948)
[13] = tested on: FLT3 (human), P36888 [R834Q]
[14] = target: INSR (human) (UniProt P06213)
[15] = target: INSRR (human) (UniProt P14616)
[16] = target: JAK3 JH1 catalytic (human) (UniProt P52333)
[17] = target: LATS1 (human) (UniProt O95835)
[18] = target: LIMK2 (human) (UniProt P53671)
[19] = target: LTK (human) (UniProt P29376)
[20] = target: MAP2K6 (human) (UniProt P52564)
[21] = target: MAP3K1 (human) (UniProt Q13233)
[22] = target: MAP3K6 (human) (UniProt O95382)
[23] = target: MAST1 (human) (UniProt Q9Y2H9)
[24] = target: MUSK (human) (UniProt O15146)
[25] = target: PKMYT1 (human) (UniProt Q99640)
[26] = target: PRKCD (human) (UniProt Q05655)
[27] = target: PRKCE (human) (UniProt Q02156)
[28] = target: RPS6KA2 KD2 (human) (UniProt Q15349)
[29] = target: RPS6KA5 KD1 (human) (UniProt O75582)
[30] = target: SIK2 (human) (UniProt Q9H0K1)
[31] = target: SRMS (human) (UniProt Q9H3Y6)
[32] = target: TLK1 (human) (UniProt Q9UKI8)
[33] = target: TNK1 (human) (UniProt Q13470)
[34] = target: TXK (human) (UniProt P42681)

INSRR (human), sequence (P14616 whole entry, looked up): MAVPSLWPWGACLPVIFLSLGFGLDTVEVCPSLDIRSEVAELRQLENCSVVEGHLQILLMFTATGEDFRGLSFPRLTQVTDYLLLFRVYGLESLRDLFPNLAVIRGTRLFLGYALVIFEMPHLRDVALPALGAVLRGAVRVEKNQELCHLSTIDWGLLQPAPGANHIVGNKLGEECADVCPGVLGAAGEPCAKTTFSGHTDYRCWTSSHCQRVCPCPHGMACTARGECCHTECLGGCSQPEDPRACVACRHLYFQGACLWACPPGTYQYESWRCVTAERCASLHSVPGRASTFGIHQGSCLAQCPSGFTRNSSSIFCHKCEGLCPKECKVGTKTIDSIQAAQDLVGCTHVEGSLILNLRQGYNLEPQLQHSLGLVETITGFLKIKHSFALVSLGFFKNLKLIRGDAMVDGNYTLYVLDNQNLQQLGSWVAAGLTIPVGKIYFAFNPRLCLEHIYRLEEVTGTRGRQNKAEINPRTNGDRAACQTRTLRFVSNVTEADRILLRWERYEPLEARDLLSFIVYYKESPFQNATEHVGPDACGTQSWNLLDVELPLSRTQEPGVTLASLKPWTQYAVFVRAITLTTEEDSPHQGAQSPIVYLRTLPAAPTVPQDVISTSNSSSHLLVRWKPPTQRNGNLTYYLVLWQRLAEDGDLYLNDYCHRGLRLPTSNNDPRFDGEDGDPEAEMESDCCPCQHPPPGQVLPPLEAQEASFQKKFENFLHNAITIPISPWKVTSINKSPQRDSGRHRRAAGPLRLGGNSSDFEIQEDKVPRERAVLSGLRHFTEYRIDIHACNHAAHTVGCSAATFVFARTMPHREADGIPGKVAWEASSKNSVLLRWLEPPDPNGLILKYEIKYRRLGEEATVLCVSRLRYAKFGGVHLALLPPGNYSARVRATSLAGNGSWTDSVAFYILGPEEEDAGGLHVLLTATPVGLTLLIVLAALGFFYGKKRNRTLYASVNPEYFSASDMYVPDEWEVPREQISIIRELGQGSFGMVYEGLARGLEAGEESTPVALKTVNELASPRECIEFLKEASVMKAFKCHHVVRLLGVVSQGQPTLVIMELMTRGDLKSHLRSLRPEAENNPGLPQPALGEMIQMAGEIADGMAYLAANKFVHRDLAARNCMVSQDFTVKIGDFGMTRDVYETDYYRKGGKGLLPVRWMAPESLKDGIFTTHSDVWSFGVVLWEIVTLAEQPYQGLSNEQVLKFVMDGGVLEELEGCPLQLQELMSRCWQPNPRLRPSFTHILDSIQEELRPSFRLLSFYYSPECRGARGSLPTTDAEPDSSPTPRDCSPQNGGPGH
MAP2K6 (human), sequence (P52564 whole entry, looked up): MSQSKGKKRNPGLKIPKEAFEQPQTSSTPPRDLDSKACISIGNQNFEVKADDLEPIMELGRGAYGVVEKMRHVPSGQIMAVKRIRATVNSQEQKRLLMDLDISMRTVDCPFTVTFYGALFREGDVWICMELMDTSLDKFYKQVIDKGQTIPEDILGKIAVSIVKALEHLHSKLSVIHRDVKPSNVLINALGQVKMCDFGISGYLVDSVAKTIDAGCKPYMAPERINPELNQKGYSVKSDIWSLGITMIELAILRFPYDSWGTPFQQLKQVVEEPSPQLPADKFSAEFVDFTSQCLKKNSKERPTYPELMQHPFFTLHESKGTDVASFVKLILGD
LTK (human), sequence (P29376 whole entry, looked up): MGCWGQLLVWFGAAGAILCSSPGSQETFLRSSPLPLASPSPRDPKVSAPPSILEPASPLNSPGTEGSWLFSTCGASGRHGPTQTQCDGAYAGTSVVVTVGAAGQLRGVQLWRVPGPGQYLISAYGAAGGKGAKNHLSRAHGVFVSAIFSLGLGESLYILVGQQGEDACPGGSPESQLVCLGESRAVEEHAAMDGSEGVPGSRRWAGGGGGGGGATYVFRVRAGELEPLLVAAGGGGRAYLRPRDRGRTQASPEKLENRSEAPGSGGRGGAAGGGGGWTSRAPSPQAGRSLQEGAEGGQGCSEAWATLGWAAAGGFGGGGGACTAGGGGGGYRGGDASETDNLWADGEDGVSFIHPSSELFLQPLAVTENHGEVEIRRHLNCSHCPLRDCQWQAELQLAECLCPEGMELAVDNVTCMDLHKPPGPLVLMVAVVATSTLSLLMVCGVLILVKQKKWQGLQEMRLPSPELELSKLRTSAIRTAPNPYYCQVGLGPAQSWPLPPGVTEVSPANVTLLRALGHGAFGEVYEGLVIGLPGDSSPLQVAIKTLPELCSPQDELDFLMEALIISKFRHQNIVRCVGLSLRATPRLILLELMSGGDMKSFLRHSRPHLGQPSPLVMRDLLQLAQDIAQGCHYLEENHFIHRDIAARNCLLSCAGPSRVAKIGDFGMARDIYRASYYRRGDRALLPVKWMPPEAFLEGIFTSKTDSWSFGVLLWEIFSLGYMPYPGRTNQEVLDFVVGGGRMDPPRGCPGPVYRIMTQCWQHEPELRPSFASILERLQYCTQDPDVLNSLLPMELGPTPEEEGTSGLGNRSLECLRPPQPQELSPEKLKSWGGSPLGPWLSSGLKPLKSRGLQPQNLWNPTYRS
PKMYT1 (human), sequence (Q99640 whole entry, looked up): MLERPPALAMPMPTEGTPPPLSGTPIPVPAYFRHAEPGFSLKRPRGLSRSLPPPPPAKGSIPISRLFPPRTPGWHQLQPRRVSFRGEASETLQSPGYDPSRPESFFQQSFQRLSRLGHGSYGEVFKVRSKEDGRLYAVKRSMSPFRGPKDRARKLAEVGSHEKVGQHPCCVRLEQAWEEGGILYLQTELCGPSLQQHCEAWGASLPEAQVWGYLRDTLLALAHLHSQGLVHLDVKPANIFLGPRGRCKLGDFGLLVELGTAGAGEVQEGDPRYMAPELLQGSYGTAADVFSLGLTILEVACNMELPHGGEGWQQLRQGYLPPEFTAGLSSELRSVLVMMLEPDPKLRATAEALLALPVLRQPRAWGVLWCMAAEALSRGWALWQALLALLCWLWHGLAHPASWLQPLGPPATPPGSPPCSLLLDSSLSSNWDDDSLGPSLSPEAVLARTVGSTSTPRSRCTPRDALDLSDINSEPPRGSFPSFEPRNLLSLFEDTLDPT
TNK1 (human), sequence (Q13470 whole entry, looked up): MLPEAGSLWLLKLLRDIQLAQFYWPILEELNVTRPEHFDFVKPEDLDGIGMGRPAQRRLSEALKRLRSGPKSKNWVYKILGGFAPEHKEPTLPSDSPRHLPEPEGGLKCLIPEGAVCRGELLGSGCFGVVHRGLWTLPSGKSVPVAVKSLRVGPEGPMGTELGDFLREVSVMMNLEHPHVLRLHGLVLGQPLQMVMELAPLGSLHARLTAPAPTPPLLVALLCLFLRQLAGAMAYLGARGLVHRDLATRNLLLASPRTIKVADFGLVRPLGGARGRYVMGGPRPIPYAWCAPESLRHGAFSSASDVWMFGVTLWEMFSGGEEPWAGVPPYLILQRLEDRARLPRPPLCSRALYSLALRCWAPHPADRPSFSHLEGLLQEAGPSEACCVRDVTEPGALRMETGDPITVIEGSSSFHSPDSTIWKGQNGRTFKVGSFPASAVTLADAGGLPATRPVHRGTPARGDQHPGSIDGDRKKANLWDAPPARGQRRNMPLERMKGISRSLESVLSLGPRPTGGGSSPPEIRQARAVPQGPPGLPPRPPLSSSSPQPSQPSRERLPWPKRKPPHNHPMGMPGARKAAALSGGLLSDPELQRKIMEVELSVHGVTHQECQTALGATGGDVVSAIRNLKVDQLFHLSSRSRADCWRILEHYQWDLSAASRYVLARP
JAK3 JH1 catalytic (human), sequence (P52333 whole entry, looked up): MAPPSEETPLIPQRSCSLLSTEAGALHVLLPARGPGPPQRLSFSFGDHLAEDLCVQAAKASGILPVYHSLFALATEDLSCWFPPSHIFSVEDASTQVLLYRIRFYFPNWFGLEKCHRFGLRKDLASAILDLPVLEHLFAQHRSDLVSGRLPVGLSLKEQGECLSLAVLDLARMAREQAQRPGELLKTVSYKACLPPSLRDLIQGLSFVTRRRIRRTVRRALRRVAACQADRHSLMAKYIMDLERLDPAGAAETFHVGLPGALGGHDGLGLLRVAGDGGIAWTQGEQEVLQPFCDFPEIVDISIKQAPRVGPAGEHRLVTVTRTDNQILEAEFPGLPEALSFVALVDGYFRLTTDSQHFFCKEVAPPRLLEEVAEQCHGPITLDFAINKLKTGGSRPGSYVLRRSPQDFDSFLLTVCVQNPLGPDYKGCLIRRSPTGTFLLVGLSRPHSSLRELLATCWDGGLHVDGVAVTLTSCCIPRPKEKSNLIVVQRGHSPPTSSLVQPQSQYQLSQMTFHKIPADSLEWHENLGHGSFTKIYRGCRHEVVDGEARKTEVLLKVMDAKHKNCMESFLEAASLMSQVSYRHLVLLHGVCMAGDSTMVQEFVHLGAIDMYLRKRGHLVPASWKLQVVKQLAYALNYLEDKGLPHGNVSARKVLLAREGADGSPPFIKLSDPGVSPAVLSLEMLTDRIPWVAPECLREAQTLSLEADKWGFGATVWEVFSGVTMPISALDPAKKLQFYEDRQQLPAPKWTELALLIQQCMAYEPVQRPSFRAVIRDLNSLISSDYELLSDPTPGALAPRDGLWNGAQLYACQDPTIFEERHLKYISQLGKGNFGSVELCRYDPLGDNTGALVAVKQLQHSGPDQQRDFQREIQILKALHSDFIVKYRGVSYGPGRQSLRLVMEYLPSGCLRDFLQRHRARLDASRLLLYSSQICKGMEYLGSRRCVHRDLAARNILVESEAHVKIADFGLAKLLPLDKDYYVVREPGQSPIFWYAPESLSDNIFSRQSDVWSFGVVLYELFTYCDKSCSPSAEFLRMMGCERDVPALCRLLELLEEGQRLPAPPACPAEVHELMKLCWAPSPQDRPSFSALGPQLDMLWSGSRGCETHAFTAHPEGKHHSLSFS

SMILES | kinase still bound, per cent of control [1] [%] | kinase still bound, per cent of control [2] [%] | kinase still bound, per cent of control [3] [%] | kinase still bound, per cent of control [4] [%] | kinase still bound, per cent of control [5] [%] | kinase still bound, per cent of control [6] [%] | kinase still bound, per cent of control [7] [%] | kinase still bound, per cent of control [8] [%] | kinase still bound, per cent of control [9] [%] | kinase still bound, per cent of control [10] [%] | kinase still bound, per cent of control [11] [%] | kinase still bound, per cent of control [12] [%] | kinase still bound, per cent of control [13] [%] | kinase still bound, per cent of control [14] [%] | kinase still bound, per cent of control [15] [%] | kinase still bound, per cent of control [16] [%] | kinase still bound, per cent of control [17] [%] | kinase still bound, per cent of control [18] [%] | kinase still bound, per cent of control [19] [%] | kinase still bound, per cent of control [20] [%] | also measured
CCN1CCN(C(=O)Cc2ccc(Nc3ncc(F)c(Nc4ccc(C(=O)Nc5ccccc5Cl)cc4)n3)cc2)CC1 | 71 | 95 | 64 | 76 | 73 | 18 | 3.8 | 47 | 13 | 62 | 100 | 9.6 | 36 | 78 | 63 | 3.7 | 100 | 30 | 32 | 44 | kinase still bound, per cent of control [21]: 97%; kinase still bound, per cent of control [22]: 86%; kinase still bound, per cent of control [23]: 100%; kinase still bound, per cent of control [24]: 11%; kinase still bound, per cent of control [25]: 100%; kinase still bound, per cent of control [26]: 60%; kinase still bound, per cent of control [27]: 100%; kinase still bound, per cent of control [28]: 57%; kinase still bound, per cent of control [29]: 100%; kinase still bound, per cent of control [30]: 20%; kinase still bound, per cent of control [31]: 58%; kinase still bound, per cent of control [32]: 19%; kinase still bound, per cent of control [33]: 1.3%; kinase still bound, per cent of control [34]: 2.2%
COc1cc2ncnc(-n3nc(-c4ccccn4)nc3N)c2cc1OC | 55 | 100 | 88 | 100 | 43 | 4.4 | 3.6 | 77 | 67 | 11 | 93 | 48 | 22 | 91 | 100 | 33 | 100 | 20 | 24 | 46 | kinase still bound, per cent of control [21]: 66%; kinase still bound, per cent of control [22]: 64%; kinase still bound, per cent of control [23]: 73%; kinase still bound, per cent of control [24]: 71%; kinase still bound, per cent of control [25]: 63%; kinase still bound, per cent of control [26]: 76%; kinase still bound, per cent of control [27]: 65%; kinase still bound, per cent of control [28]: 43%; kinase still bound, per cent of control [29]: 84%; kinase still bound, per cent of control [30]: 61%; kinase still bound, per cent of control [31]: 27%; kinase still bound, per cent of control [32]: 46%; kinase still bound, per cent of control [33]: 11%; kinase still bound, per cent of control [34]: 43%
NC(=O)Nc1cc(-c2cccc(F)c2)sc1C(=O)N[C@@H]1CCCNC1 | 6.7 | 100 | 73 | 100 | 0.05 | 0.35 | 0.1 | 2.4 | 0.05 | 0.2 | 0 | 0.1 | 5.6 | 27 | 22 | 0 | 11 | 88 | 0.3 | 3.8 | kinase still bound, per cent of control [21]: 51%; kinase still bound, per cent of control [22]: 25%; kinase still bound, per cent of control [23]: 4.1%; kinase still bound, per cent of control [24]: 18%; kinase still bound, per cent of control [25]: 33%; kinase still bound, per cent of control [26]: 0.65%; kinase still bound, per cent of control [27]: 14%; kinase still bound, per cent of control [28]: 1.9%; kinase still bound, per cent of control [29]: 49%; kinase still bound, per cent of control [30]: 2.6%; kinase still bound, per cent of control [31]: 0%; kinase still bound, per cent of control [32]: 0.9%; kinase still bound, per cent of control [33]: 1.4%; kinase still bound, per cent of control [34]: 0.1%
